According to patent US20240293400A1, “NOVEL AZAINDOLE DERIVATIVES AS ANTIVIRAL AGENTS” (Centre National de la Recherche Scientifique, priority 2021, published 2024):

How the values were obtained:
Format in all cases: cell-based
Axl = Axl (Homo sapiens (Human), UniProt P30530); assay: Inhibition of the phosphorylation of the kinase Axl in cellulo (immunoblot, Y779); conditions: A549 cells, 2.5 μM compound 1 hour, 1 mM pervanadate 5 min
Experimental: FIG. 1: […] The A549 cells were preincubated for 1 hour with 2.5 μM of compounds targeting Axl. They were then stimulated for 5 min with 1 mM of pervanadate. The evaluation of the inhibition of the phosphorylation of the […] residue of the intracytoplasmic domain of Axl kinase is carried out by immunoblot using the antibody R&D Systems (AF2228) and measuring the intensity of the signals by densitometry (Image J) (P-Axl/Axl ratio). The A549 cells were preincubated for 1 hour with 2.5 μM of compound 1, 2, or 3. They were then stimulated for 5 min with 1 mM pervanadate, a compound known to activate the kinase Axl by phosphorylation. The inhibition of the phosphorylation of the […] residue of the intracytoplasmic domain of Axl is visualized by immunoblot using the antibody R&D Systems (AF2228).

WNV virus, Kunjin strain = assay: Antiviral activity against the WNV virus, Kunjin strain in HeLa cells; conditions: summary table
SARS-COV-2 = assay: Anti-SARS-COV-2 activity in primary human bronchial epithelium model (MucilAir); conditions: 1.25 μM, 24 hours, qRT-PCR

Chain of Axl (P30530 26-894): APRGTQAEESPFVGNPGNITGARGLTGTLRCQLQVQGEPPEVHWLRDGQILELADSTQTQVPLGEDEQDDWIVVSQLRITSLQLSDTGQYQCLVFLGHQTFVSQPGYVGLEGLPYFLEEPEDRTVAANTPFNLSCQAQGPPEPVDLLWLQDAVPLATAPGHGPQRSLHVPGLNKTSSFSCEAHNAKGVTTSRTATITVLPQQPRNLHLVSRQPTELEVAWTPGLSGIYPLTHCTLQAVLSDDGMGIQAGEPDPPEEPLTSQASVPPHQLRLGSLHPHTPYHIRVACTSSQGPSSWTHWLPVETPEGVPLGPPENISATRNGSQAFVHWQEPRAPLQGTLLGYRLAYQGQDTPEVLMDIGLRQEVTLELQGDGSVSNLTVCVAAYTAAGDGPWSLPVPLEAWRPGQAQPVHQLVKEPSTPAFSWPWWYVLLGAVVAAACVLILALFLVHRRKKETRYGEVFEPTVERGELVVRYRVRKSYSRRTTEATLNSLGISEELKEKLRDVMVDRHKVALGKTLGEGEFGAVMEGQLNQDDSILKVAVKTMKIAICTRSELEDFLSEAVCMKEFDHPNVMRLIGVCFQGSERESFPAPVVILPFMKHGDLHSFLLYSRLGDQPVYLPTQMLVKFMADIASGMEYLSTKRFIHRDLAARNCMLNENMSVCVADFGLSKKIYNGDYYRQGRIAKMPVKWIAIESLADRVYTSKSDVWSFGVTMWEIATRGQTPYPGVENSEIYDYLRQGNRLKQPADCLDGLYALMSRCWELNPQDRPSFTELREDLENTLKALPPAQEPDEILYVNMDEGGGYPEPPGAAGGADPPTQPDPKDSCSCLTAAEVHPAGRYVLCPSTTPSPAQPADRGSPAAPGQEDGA

**Q.** With `CN1CCN(Cc2cccc(-c3cnc4[nH]cc(-c5cc(NC(=O)Nc6ccccc6)ccc5F)c4c3)c2)CC1` [Compound 3] as the molecule, how does the “activation (phosphorylation) of the Y779 residue of AxL compared to the control (DMSO)” value (“activation … compared to the control (DMSO)” for short) (Axl) read?
**A.** much lower or even zero activation

**Q.** Which “active on infectious model KUNV” value (WNV virus, Kunjin strain) does the source give for `CN1CCN(Cc2cccc(-c3cnc4[nH]cc(-c5cc(CNCCc6ccc(O)cc6)ccc5F)c4c3)c2)CC1` [Compound 1] here?
**A.** ACTIVE

**Q.** And the “activation … compared to the control (DMSO)” value (Axl)?
**A.** much lower or even zero activation

**Q.** What about the “infection of the primary bronchial epithelium by SARS-COV-2” value (SARS-COV-2) of the same molecule?
**A.** inhibits the infection

**Q.** For `CN1CCN(Cc2cccc(-c3cnc4[nH]cc(-c5cc(CNCc6ccccc6)ccc5F)c4c3)c2)CC1` [Compound 2], which “active on infectious model KUNV” value (WNV virus, Kunjin strain) is on record?
**A.** ACTIVE

**Q.** And the “activation … compared to the control (DMSO)” value (Axl)?
**A.** much lower or even zero activation
